The results in this text go back to patent EP0997459A1, “Intermediates for preparing retroviral protease inhibiting compounds” (priority 1990, dated 1992).

What is called IC50 is the concentration that inhibits the measured activity by half. Read a high IC50 as weaker potency in that assay. For orientation: inhibition means the share of the control response that was lost under treatment. By CC50 is commonly meant the concentration giving 50% cytotoxicity.

Each structure is given as a SMILES string. Where two headings read alike, the source gives them in different places.

One series has as its system HIV-13B. As to the kind of experiment: Antiviral activity: inhibition of the cytopathic effect of HIV in MT4 cells (procedure of Pauwels et al.). Type of series: cell-based. The conditions noted are these: Human immunodeficiency virus 1, MT4. The source says: (§1) The anti-HIV activity of the compounds of the invention can be determined in MT4 cells according to the procedure of Pauwels et. al. (J. Virol. Methods 1988, 20, 309).

The next series deals with HIV-1 protease (Human immunodeficiency virus type 1 group M subtype B, UniProt P04585). As to the kind of experiment: Fluorogenic assay for screening inhibitors of HIV protease. Conditions: read-out: Percent Inhibition. Type of series: biochemical. As to the method:
Fluorogenic Assay for Screening Inhibitors of HIV Protease
The inhibitory potency of the compounds of the invention can be determined by the following method.
A compound of the invention is dissolved in DMSO and a small aliquot further diluted with DMSO to 100 times the final concentration desired for testing. The reaction is carried out in a 6 X 50 mm tube in a total volume of 300 microliters. The final concentrations of the components in the reaction buffer are: 125 mM sodium acetate, 1 M sodium chloride, 5 mM dithiothreitol, 0.5 mg/ml bovine serum albumin, 1.3 µM fluorogenic substrate, 2% (v/v) dimethylsulfoxide, pH 4.5. After addition of inhibitor, the reaction mixture is placed in the fluorometer cell holder and incubated at 30°C for several minutes. The reaction is initiated by the addition of a small aliquot of cold HIV protease. The fluorescence intensity (excitation 340 nm, emmision 490 nM) is recorded as a function of time. The reaction rate is determined for the first six to eight minutes. The observed rate is directly proportional to the moles of substrate cleaved per unit time. The percent inhibition is 100 X (1 - (rate in presence of inhibitor)/(rate in absence of inhibitor)).

The nature of series [1]: Cell viability (LC50) in MT4 cells in the antiviral test. The class given is cell-based. Conditions: human, concentration at which 50% of the cells remain viable.
Excerpt: as §1

The mark [2] stands for this setting: Inhibitor Concentration 0.5 nanomolar.

As for `Cc1cnc(COC(=O)N[C@H](C(=O)N[C@@H](Cc2ccccc2)[C@@H](O)C[C@H](Cc2ccccc2)NC(=O)OCc2cccnc2)C(C)C)cn1` [Example 307], the IC50 in the series on HIV-13B lay in the range of 160 to 260 nM.

In the case of `CC(C)[C@H](NC(=O)N(C)Cc1ccccn1)C(=O)N[C@@H](Cc1ccccc1)[C@@H](O)C[C@H](Cc1ccccc1)NC(=O)OCc1cccnc1` [Example 37C, (2S,3S,5S)-2-(N-(N-((N-Methyl-N-((2-pyridinyl)-methyl)amino)carbonyl)valinyl)amino)-5-(N-((3-pyridinyl)methoxycarbonyl)amino)-1,6-diphenyl-3-hydroxyhexane], the inhibition at 0.001 µM at HIV-1 protease turned out to be 61%. The IC50 with HIV-13B is 840 to 1440 nM.

In turn, `Cc1cncc(CN(C)C(=O)N[C@H](C(=O)N[C@@H](Cc2ccccc2)C[C@H](O)[C@H](Cc2ccccc2)NC(=O)OCc2cccnc2)C(C)C)c1` [Example 314] came in with an IC50 in the series with HIV-13B of 98 to 144 nM.

In the case of `Cc1cccc(COC(=O)N[C@H](C(=O)N[C@@H](Cc2ccccc2)[C@@H](O)C[C@H](Cc2ccccc2)NC(=O)OCc2ccoc2)C(C)C)n1` [Example 322B, (2S,3S,5S)-2-(N-(N-(2-(6-Methylpyridinyl)methoxycarbonyl)valinyl)amino)-5-(N-((3-furyl)methoxycarbonyl)amino)-1,6-diphenyl-3-hydroxyhexane], in the series on HIV-13B, the IC50 fell in the range of 86 to 94 nM.

The molecule `COc1ccc(CN(C)C(=O)N[C@H](C(=O)N[C@@H](Cc2ccccc2)C[C@H](O)[C@H](Cc2ccccc2)NC(=O)OCc2cccnc2)C(C)C)cn1` [Example 312] showed an IC50 in the series with HIV-13B of 58 to 77 nM.

As to `Cc1cccc(COC(=O)N[C@H](C(=O)N[C@@H](Cc2ccccc2)C[C@H](O)[C@H](Cc2ccccc2)NC(=O)OCc2cccnc2)C(C)C)n1` [Example 290, (2S,3S,5S)-2-(N-[(pyridin-3-yl)methoxycarbonyl]amino)-5-(N-[(6-methylpyridin-2-yl)methoxycarbonyl-valyl]amino)-1,6-diphenyl-3-hydroxyhexane], the IC50 in the series with HIV-13B was in the range of 26 to 75 nM.

Molecule `CC(C)[C@H](NC(=O)N(C)Cc1ccccn1)C(=O)N[C@@H](Cc1ccccc1)C[C@H](O)[C@H](Cc1ccccc1)NC(=O)OCc1cccnc1` [Example 38, (2S,3S,5S)-5-(N-(N-((N-Methyl-N-((2-pyridinyl)methyl)amino)carbonyl)valinyl)amino)-2-(N-((3-pyridinyl)methoxycarbonyl)amino)-1,6-diphenyl-3-hydroxyhexane] showed an IC50 in the series on HIV-13B of 550 to 610 nM.

`CC(C)[C@H](NC(=O)OCc1ccccn1)C(=O)N[C@@H](Cc1ccccc1)[C@@H](O)C[C@H](Cc1ccccc1)NC(=O)OCc1cncnc1` [Example 319, (2S,3S,5S)-2-(N-(N-((2-Pyridinyl)methoxycarbonyl)valinyl)amino)-5-(N-((5-pyrimidinyl)methoxycarbonyl)amino)-1,6-diphenyl-3-hydroxyhexane]: the IC50 with HIV-13B fell in the range of 210 to 290 nM.

As for `Cc1cccc(COC(=O)N[C@H](C(=O)N[C@@H](Cc2ccccc2)[C@@H](O)C(F)(F)[C@H](Cc2ccccc2)NC(=O)[C@@H](NC(=O)OCc2cccc(C)n2)C(C)C)C(C)C)n1` [Example 305], at HIV-1 protease (setting [2]), the inhibition at 0.0005 µM came out at 91%. In the series with HIV-13B, this molecule came in with an IC50 of 5 to 17 nM.

For the molecule `O=C(N[C@@H](Cc1ccccc1)C[C@H](O)[C@H](Cc1ccccc1)NC(=O)OCc1ccno1)OCc1ccno1` [Example 334B, (2S,3S,5S)-2,5-Bis-(N-(isoxazol-5-ylmethoxycarbonyl)amino)-1,6-diphenyl-3-hydroxyhexane], on HIV-1 protease, the inhibition at 0.001 µM was determined as 56%. Also, the IC50 in the series on HIV-13B lay within 740 to 1600 nM. In series [1], this molecule returned a CC50 of 91000 nM.

Regarding `COc1ccc(COC(=O)N[C@H](C(=O)N[C@@H](Cc2ccccc2)C[C@H](O)[C@H](Cc2ccccc2)NC(=O)OCc2cccnc2)C(C)C)cn1` [Example 310], in the series on HIV-13B, the IC50 lay within 13 to 25 nM.

`Cc1cccc(COC(=O)N[C@H](C(=O)N[C@@H](Cc2ccccc2)C(=O)C(F)(F)[C@H](Cc2ccccc2)NC(=O)[C@@H](NC(=O)OCc2cccc(C)n2)C(C)C)C(C)C)n1` [Example 306]: the inhibition at 0.0005 µM on HIV-1 protease (setting [2]) amounted to 88%. The same molecule showed an IC50 in the series on HIV-13B of 7 to 19 nM.

In the series with HIV-13B, `CC(C)[C@H](NC(=O)N(C)Cc1ccccn1)C(=O)N[C@@H](Cc1ccccc1)C[C@H](O)[C@H](Cc1ccccc1)NC(=O)OCc1cncnc1` [Example 320, (2S,3S,5S)-5-(N-(N-((N-Methyl-N-((2-pyridinyl)methyl)amino)carbonyl)valinyl)amino)-2-(N-((5-pyrimidinyl)methoxycarbonyl)amino)-1,6-diphenyl-3-hydroxyhexane] came in with an IC50 of 400 to 500 nM.

`CC(C)[C@H](NC(=O)OCc1ccccn1)C(=O)N[C@@H](Cc1ccccc1)[C@@H](O)C[C@H](Cc1ccccc1)NC(=O)OCc1cccnc1` [Example 39, (2S,3S,5S)-2-(N-(N-((2-Pyridinyl)methoxycarbonyl)valinyl)amino)-5-(N-((3-pyridinyl)methoxycarbonyl)amino)-1,6-diphenyl-3-hydroxyhexane] yielded an IC50 in the series with HIV-13B of 130 to 250 nM.

With `CC(C)[C@H](NC(=O)OCc1ccc2ccccc2n1)C(=O)N[C@@H](Cc1ccccc1)C[C@H](O)[C@H](Cc1ccccc1)NC(=O)OCc1cccnc1` [Example 327, (2S,3S,5S)-5-(N-(N-((2-Ouinolinyl)methoxycarbonyl)valinyl)amino)-2-(N-((3-pyridinyl)methoxycarbonyl)amino)-1,6-diphenyl-3-hydroxyhexane], the inhibition at 0.0005 µM on HIV-1 protease worked out at 69%. This molecule also came in with an IC50 with HIV-13B of 34 to 64 nM. For the same molecule, in series [1], it took 84000 nM to reach half-maximal cytotoxicity (CC50).

`Cc1cncc(CN(C)C(=O)N[C@H](C(=O)N[C@@H](Cc2ccccc2)[C@@H](O)C[C@H](Cc2ccccc2)NC(=O)OCc2cccnc2)C(C)C)c1` [Example 313, (2S,3S,5S)-2-(N-(N-((N-Methyl-N-((5-methyl-3-pyridinyl)methyl)amino)carbonyl)valinyl)amino)-5-(N-((3-pyridinyl)methoxycarbonyl)amino)-1,6-diphenyl-3-hydroxyhexane] displayed an IC50 with HIV-13B of 460 to 500 nM.

As for `CC[C@H](C)[C@H](NC(=O)N(C)Cc1ccccn1)C(=O)N[C@@H](Cc1ccccc1)C[C@H](O)[C@H](Cc1ccccc1)NC(=O)OCc1cccnc1` [Example 171], the inhibition at 0.0005 µM on HIV-1 protease (setting [2]) was 62%. Also, the IC50 in the series with HIV-13B was 380 to 550 nM.

As to `COc1ccc(COC(=O)N[C@H](C(=O)N[C@@H](Cc2ccccc2)C[C@H](O)[C@H](Cc2ccccc2)NC(=O)[C@@H](NC(=O)OCc2ccc(OC)nc2)C(C)C)C(C)C)cn1` [Example 315], the inhibition at 0.0005 µM at HIV-1 protease came to […]. Also, the IC50 in the series with HIV-13B is 3 to 5 nM.

Regarding `O=C(N[C@@H](Cc1ccccc1)C[C@H](O)[C@H](Cc1ccccc1)NC(=O)OCc1cccnc1)OCc1cccnc1` [Example 174], the inhibition at 0.0005 µM at HIV-1 protease (setting [2]) turned out to be 51%. This molecule registered an IC50 in the series on HIV-13B of 140 to 230 nM.

Regarding `Cc1cnc(COC(=O)N[C@H](C(=O)N[C@@H](Cc2ccccc2)C[C@H](O)[C@H](Cc2ccccc2)NC(=O)OCc2cccnc2)C(C)C)cn1` [Example 308], the IC50 in the series with HIV-13B was in the range of 77 to 124 nM.

On to `Cc1cccc(CN(C)C(=O)N[C@H](C(=O)N[C@@H](Cc2ccccc2)[C@@H](O)C[C@H](Cc2ccccc2)NC(=O)OCc2cccnc2)C(C)C)n1` [Example 297, (2S,3S-5S)-2-(N-(N-((N-Methyl-N-((6-methyl-2-pyridinyl)methyl)amino)carbonyl)valinyl)amino)-5-(N-((3-pyridinyl)-methoxycarbonyl)amino)-1,6-diphenyl-3-hydroxyhexane], for which the IC50 in the series with HIV-13B was in the range of 310 to 350 nM.

Take `CC(C)[C@H](NC(=O)OCc1ccccn1)C(=O)N[C@@H](Cc1ccccc1)C[C@H](O)[C@H](Cc1ccccc1)NC(=O)OCc1cncnc1` [Example 321, (2S,3S,5S)-5-(N-(N-((2-Pyridinyl)methoxycarbonyl)valinyl)amino)-2-(N-((5-pyrimidinyl)methoxycarbonyl)amino)-1,6-diphenyl-3-hydroxyhexane]: the inhibition at 0.0005 µM on HIV-1 protease was 64%. Besides, the concentration for half-maximal inhibition (IC50) in the series with HIV-13B lay within 140 to 190 nM.

In turn, `COc1ccc(CN(C)C(=O)N[C@H](C(=O)N[C@@H](Cc2ccccc2)[C@@H](O)C[C@H](Cc2ccccc2)NC(=O)OCc2cccnc2)C(C)C)cn1` [Example 311, (2S,3S,5S)-2-(N-(N-((N-Methyl-N-((6-methoxy-3-pyridinyl)methyl)amino)carbonyl)valinyl)amino)-5-(N-((3-pyridinyl)methoxycarbonyl)amino)-1,6-diphenyl-3-hydroxyhexane] showed a half-maximal inhibitory concentration (IC50) in the series with HIV-13B of 58 to 67 nM.

Regarding `CC(C)[C@H](NC(=O)OCc1ccccn1)C(=O)N[C@@H](Cc1ccccc1)C[C@H](O)[C@H](Cc1ccccc1)NC(=O)OCc1cccnc1` [Example 40, (2S,3S,5S)-5-(N-(N-((2-Pyridinyl)methoxycarbonyl)valinyl)amino)-2-(N-((3-pyridinyl)methoxycarbonyl)amino)-1,6-diphenyl-3-hydroxyhexane], the inhibition at 0.0005 µM at HIV-1 protease was 61%. In the series with HIV-13B, this molecule showed an IC50 of 230 to 550 nM. The same molecule had a CC50 in series [1] of 64000 nM.

In the series on HIV-13B, `Cc1cccc(CN(C)C(=O)N[C@H](C(=O)N[C@@H](Cc2ccccc2)C[C@H](O)[C@H](Cc2ccccc2)NC(=O)OCc2cccnc2)C(C)C)n1` [Example 298] registered an IC50 of 220 to 290 nM.
